Data from PubChem BioAssay (NCI).
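These data come from cells grown in 96-well plates and exposed to compound for 48 hours at five concentrations. TGI denotes the concentration required for complete inhibition of growth.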

Columns and labels:
Experiment in all cases: inhibition of tumour cell growth, NCI panel, 48 h
HOP-92 NSCLC = test system: HOP-92 NSCLC
MDA-N = test system: MDA-N
COLO 205 colon = test system: COLO 205 colon
SK-MEL-5 melanoma = test system: SK-MEL-5 melanoma
DU-145 prostate = test system: DU-145 prostate
HS 578T breast = test system: HS 578T breast
NCI-H460 lung = test system: NCI-H460 lung
CAKI-1 renal = test system: CAKI-1 renal
SK-MEL-28 melanoma = test system: SK-MEL-28 melanoma
OVCAR-3 ovarian = test system: OVCAR-3 ovarian
RPMI-8226 leukemia = test system: RPMI-8226 leukemia
NCI-H522 lung = test system: NCI-H522 lung
MALME-3M melanoma = test system: MALME-3M melanoma
M14 melanoma = test system: M14 melanoma
LOX IMVI melanoma = test system: LOX IMVI melanoma
ACHN renal = test system: ACHN renal
HCC-2998 colon = test system: HCC-2998 colon
PC-3 prostate = test system: PC-3 prostate
HCT-116 colon = test system: HCT-116 colon
KM12 colon = test system: KM12 colon
SK-MEL-2 melanoma = test system: SK-MEL-2 melanoma
786-0 renal = test system: 786-0 renal
RXF 393 renal = test system: RXF 393 renal
OVCAR-4 ovarian = test system: OVCAR-4 ovarian
CCRF-CEM leukemia = test system: CCRF-CEM leukemia
SR leukemia = test system: SR leukemia
T-47D breast = test system: T-47D breast
NCI-H23 lung = test system: NCI-H23 lung
SW-620 colon = test system: SW-620 colon
HCT-15 colon = test system: HCT-15 colon
EKVX NSCLC = test system: EKVX NSCLC
U251 CNS = test system: U251 CNS
SNB-19 CNS = test system: SNB-19 CNS
SF-295 CNS = test system: SF-295 CNS
NCI/ADR-RES ovarian = test system: NCI/ADR-RES ovarian
HL-60(TB) leukemia = test system: HL-60(TB) leukemia
IGROV1 ovarian = test system: IGROV1 ovarian
TK-10 renal = test system: TK-10 renal
OVCAR-8 ovarian = test system: OVCAR-8 ovarian
OVCAR-5 ovarian = test system: OVCAR-5 ovarian
MCF7 breast = test system: MCF7 breast
SN12C renal = test system: SN12C renal
A549 NSCLC = test system: A549 NSCLC
SK-OV-3 ovarian = test system: SK-OV-3 ovarian
SF-539 CNS = test system: SF-539 CNS
SF-268 CNS = test system: SF-268 CNS
NCI-H226 lung = test system: NCI-H226 lung
HT29 colon = test system: HT29 colon
HOP-62 NSCLC = test system: HOP-62 NSCLC
MDA-MB-231 breast = test system: MDA-MB-231 breast
UO-31 renal = test system: UO-31 renal
UACC-62 melanoma = test system: UACC-62 melanoma
BT-549 breast = test system: BT-549 breast
A498 renal = test system: A498 renal
MDA-MB-435 = test system: MDA-MB-435
SNB-75 CNS = test system: SNB-75 CNS
UACC-257 melanoma = test system: UACC-257 melanoma
K-562 leukemia = test system: K-562 leukemia

COC(=O)C1(CCC(=O)N(C)c2ccccc2)NNC2C(=O)N(c3ccccc3)C(=O)C21 (centres undefined)
TGI (HOP-92 NSCLC): > 10 µM
TGI (MDA-N): > 10 µM
TGI (COLO 205 colon): > 10 µM
TGI (SK-MEL-5 melanoma): > 10 µM
TGI (DU-145 prostate): > 10 µM
TGI (HS 578T breast): > 10 µM
TGI (NCI-H460 lung): > 10 µM
TGI (CAKI-1 renal): > 10 µM
TGI (SK-MEL-28 melanoma): > 10 µM
TGI (OVCAR-3 ovarian): > 10 µM
TGI (RPMI-8226 leukemia): > 10 µM
TGI (NCI-H522 lung): > 10 µM
TGI (MALME-3M melanoma): > 10 µM
TGI (M14 melanoma): > 10 µM
TGI (LOX IMVI melanoma): > 10 µM
TGI (ACHN renal): > 10 µM
TGI (HCC-2998 colon): > 10 µM
TGI (PC-3 prostate): > 10 µM
TGI (HCT-116 colon): > 10 µM
TGI (KM12 colon): > 10 µM
TGI (SK-MEL-2 melanoma): > 10 µM
TGI (786-0 renal): > 10 µM
TGI (RXF 393 renal): > 10 µM
TGI (OVCAR-4 ovarian): > 10 µM
TGI (CCRF-CEM leukemia): > 10 µM
TGI (SR leukemia): > 10 µM
TGI (T-47D breast): > 10 µM
TGI (NCI-H23 lung): > 10 µM
TGI (SW-620 colon): > 10 µM
TGI (HCT-15 colon): > 10 µM
TGI (EKVX NSCLC): > 10 µM
TGI (U251 CNS): > 10 µM
TGI (SNB-19 CNS): > 10 µM
TGI (SF-295 CNS): > 10 µM
TGI (NCI/ADR-RES ovarian): > 10 µM
TGI (HL-60(TB) leukemia): > 10 µM
TGI (IGROV1 ovarian): > 10 µM
TGI (TK-10 renal): > 10 µM
TGI (OVCAR-8 ovarian): > 10 µM
TGI (OVCAR-5 ovarian): > 10 µM
TGI (MCF7 breast): > 10 µM
TGI (SN12C renal): > 10 µM
TGI (A549 NSCLC): > 10 µM
TGI (SK-OV-3 ovarian): > 10 µM
TGI (SF-539 CNS): > 10 µM
TGI (SF-268 CNS): > 10 µM
TGI (NCI-H226 lung): > 10 µM
TGI (HT29 colon): > 10 µM
TGI (HOP-62 NSCLC): > 10 µM
TGI (MDA-MB-231 breast): > 10 µM
TGI (UO-31 renal): > 10 µM
TGI (UACC-62 melanoma): > 10 µM
TGI (BT-549 breast): > 10 µM
TGI (A498 renal): > 10 µM
TGI (MDA-MB-435): > 10 µM
TGI (SNB-75 CNS): > 10 µM
TGI (UACC-257 melanoma): > 10 µM

COc1ccc(NC(=S)N/N=C(\c2ccccc2)c2ccccn2)cc1
TGI (HOP-92 NSCLC): 9.87 µM
TGI (MDA-N): 16.2 µM
TGI (COLO 205 colon): 30.3 µM
TGI (SK-MEL-5 melanoma): 6.53 µM
TGI (DU-145 prostate): 11.2 µM
TGI (HS 578T breast): 56.8 µM
TGI (NCI-H460 lung): 6.47 µM
TGI (CAKI-1 renal): 10.5 µM
TGI (SK-MEL-28 melanoma): 18.5 µM
TGI (OVCAR-3 ovarian): 13.2 µM
TGI (RPMI-8226 leukemia): > 20.6 µM
TGI (NCI-H522 lung): 15.3 µM
TGI (MALME-3M melanoma): 11 µM
TGI (M14 melanoma): 2.61 µM
TGI (LOX IMVI melanoma): 18.4 µM
TGI (ACHN renal): 10.5 µM
TGI (HCC-2998 colon): 22.3 µM
TGI (PC-3 prostate): 17.6 µM
TGI (HCT-116 colon): 13.7 µM
TGI (KM12 colon): 15.9 µM
TGI (SK-MEL-2 melanoma): 14.1 µM
TGI (786-0 renal): 11.2 µM
TGI (RXF 393 renal): 15.7 µM
TGI (OVCAR-4 ovarian): 16.9 µM
TGI (CCRF-CEM leukemia): > 40.1 µM
TGI (SR leukemia): 5.57 µM
TGI (T-47D breast): 13.6 µM
TGI (NCI-H23 lung): 16.4 µM
TGI (SW-620 colon): 20.2 µM
TGI (K-562 leukemia): 3.06 µM
TGI (HCT-15 colon): 15 µM
TGI (EKVX NSCLC): 2.65 µM
TGI (U251 CNS): 27.1 µM
TGI (SNB-19 CNS): 18.5 µM
TGI (SF-295 CNS): 9.59 µM
TGI (NCI/ADR-RES ovarian): 23.8 µM
TGI (HL-60(TB) leukemia): 1.9 µM
TGI (IGROV1 ovarian): 17.2 µM
TGI (TK-10 renal): 2.27 µM
TGI (OVCAR-8 ovarian): 11.7 µM
TGI (OVCAR-5 ovarian): 6.5 µM
TGI (MCF7 breast): 0.703 µM
TGI (SN12C renal): 7.24 µM
TGI (A549 NSCLC): 14.2 µM
TGI (SK-OV-3 ovarian): 16 µM
TGI (SF-539 CNS): 3.03 µM
TGI (SF-268 CNS): 14.8 µM
TGI (NCI-H226 lung): 2.61 µM
TGI (HT29 colon): 23.6 µM
TGI (HOP-62 NSCLC): 5.33 µM
TGI (MDA-MB-231 breast): 14.4 µM
TGI (UO-31 renal): 8.73 µM
TGI (UACC-62 melanoma): 10.2 µM
TGI (BT-549 breast): 20.2 µM
TGI (A498 renal): 16 µM
TGI (MDA-MB-435): 16.9 µM
TGI (UACC-257 melanoma): 2.44 µM
